Measurements from patent US20220305017A1, “COMPOSITIONS AND METHODS FOR THE TREATMENT OF ESTROGEN-DEPENDENT DISORDERS” (ObsEva S.A., priority 2019, published 2022).

Tested on: human female patients diagnosed as having adenomyosis
Test: human clinical trial in adenomyosis (single-patient longitudinal case study and multi-patient analysis, n = 6)
Type: in vivo
Settings: single patient
Excerpt: This examples describes the results of a human clinical trial conducted to evaluate the ability of a GnRH antagonist, 3-[2-fluoro-5-(2,3-difluoro-6-methoxybenzyloxy)4-methoxyphenyl]-2,4-dioxo-1,2,3,4-tetrahydrothieno [3,4d]pyrimidine-5-carboxylic acid (represented by formula (VI)), or a pharmaceutically acceptable salt thereof, to treat adenomyosis, an estrogen-dependent disease, in human patients diagnosed as having this condition.
One aim of this study was to investigate the ability of the GnRH antagonist to maintain its therapeutic effects despite being administered to patients in a progressively lower dosage throughout the trial. To this end, the patients treated in this study was first administered the GnRH antagonist of formula (VI) in an amount of 200 mg/day during an initial 12-week period. The GnRH antagonist was then administered to the patients in a reduced amount of 100 mg/day during a subsequent 12-week period. The patients' responsiveness to the GnRH antagonist was monitored throughout the study.
In addition to assessing the effectiveness of the GnRH antagonist when administered at lower doses, another aim of this study was to evaluate the ability of the GnRH antagonist to sustain its therapeutic effects even after treatment was ceased altogether. Accordingly, after being periodically administered the GnRH antagonist of formula (VI) over the course of 24 weeks, first in an amount of 200 mg/day and then in an amount of 100 mg/day, treatment with the GnRH antagonist was halted entirely. The patients were then monitored during a post-treatment follow-up period to analyze the extent to which the therapeutic effects of the compound were sustained.
To test the effects of compound (VI), a total of n=6 human female patients diagnosed as having adenomyosis were administered compound (VI) in accordance with the dosing schedule described above. One of these patients in particular was closely monitored beginning well before their treatment with compound (VI) was initiated. The specific results of this patient's therapy are described in the section entitled “Single-Patient Longitudinal Case Study,” below. The cumulative set of results for all 6 patients is reported in the section entitled “Multi-Patient Analysis,” below.
As part of the clinical trial, a case study was conducted in which a single patient of reproductive age having clinically diagnosed adenomyosis was monitored during the course of treatment with compound (VI). The patient was nulliparous. Two years before the study began, the patient presented with heavy menstrual bleeding, pelvic pain, and dysmenorrhea. […] Their gynecologist prescribed ulipristal acetate (UPA), a selective progesterone receptor modulator (SPRM), to be administered in an amount of 5 mg/day over the course of a treatment period lasting three months.
The patient was then recommended for treatment with the GnRH antagonist represented by formula (VI) herein. Accordingly, the patient was orally administered compound (VI) in an amount of 200 mg/day for three months. Following this initial three-month period, the patient was orally administered compound (VI) in a reduced amount of 100 mg/day for a subsequent three-period. During both treatment periods, compound (VI) was administered to the patient in the form of a choline salt.
The patient was recommended for once-daily treatment with the GnRH antagonist of formula (VI). Accordingly, the patient was administered the GnRH antagonist of formula (VI) in an amount of 200 mg/day during a first treatment period, which lasted three months. At the conclusion of the first treatment period, the patient began a second treatment period in which they were administered compound (VI) in a reduced amount of 100 mg/day for three months. During both treatment periods, compound (VI) was administered to the patient in the form of a choline salt. […]

CC(=O)O[C@]1(C(C)=O)CC[C@H]2[C@@H]3CCC4=CC(=O)CCC4=C3[C@@H](c3ccc(N(C)C)cc3)C[C@@]21C [UPA, ulipristal acetate, reference compound]
bleeding during treatment (5 mg/day for three months): breakthrough bleeding and spotting | symptoms of pelvic pain and dysmenorrhea (5 mg/day for three months, before compound (VI)): worsened | adenomyotic lesions by MRI (end of 5 mg/day three-month course, FIG. 4B): significantly increased quantity of adenomyotic lesions
